ChEMBL document CHEMBL4842343, “1,10-Seco-Eudesmane sesquiterpenoids as a new type of anti-neuroinflammatory agents by suppressing TLR4/NF-κB/MAPK pathways” (Eur J Med Chem, 2021)

Columns and labels:
[1] = Inhibition of LPS-induced NO production in mouse BV-2 cells incubated for 24 hrs by Griess reagent based assay; format: functional, cell-based
BV-2 [2] = experiment: Cytotoxicity against LPS-stimulated mouse BV-2 cells assessed as reduction in cell viability at 20 uM measured after 24 hrs by MTT assay relative to control; format: cell-based; conditions: bv-2, 24 h
[3] = Effective permeability of the compound in PBS/EtOH buffer (9:1) at […] after 10 hrs by HPLC-UV based PAMPA-BBB assay; format: ADME; conditions: read-out: permeability
BV-2 [4] = experiment: Antineuroinflammatory activity in LPS- stimulated mouse BV-2 cells assessed as fold increase in HO-1 expression at 10 uM measured after 24 hrs by immunoblotting analysis relative to control; format: functional
[5] = Inhibition of iNOS expression in LPS-stimulated mouse BV-2 cells at 10 uM measured after 24 hrs by western blot analysis relative to control; format: functional
[6] = Mus musculus, BV-2, 24 h, read-out: EC50

Row | Structure (SMILES) | EC50 [1, 6] [µM] | Activity (BV-2 [2]) [%] | other results
1 | C#Cc1ccc(-c2cn([C@@H]3C(C)=C([C@@H](C)CCCOC(C)=O)[C@@H](OC(C)=O)[C@@H]4C(=C)C(=O)O[C@@H]43)nn2)cc1 | – | 38.5 | EC50 ([1]; bv-2): Not Active
2 | C=C1C(=O)O[C@@H]2CC(CN3CCCC3)=C([C@@H](C)CCCOC(C)=O)[C@@H](OC(C)=O)[C@H]12 | 30.2 | 95.2 | –
3 | CC(=O)OCCC[C@H](C)C1=C(C)C[C@H]2OC(=O)[C@]3(CC(c4ccccc4Br)=NO3)[C@H]2[C@@H]1OC(C)=O | > 50 | 98.6 | –
4 | NC(=O)N1c2ccccc2C=Cc2ccccc21 [CARBAMAZEPINE] | – | – | Papp at 10 h [3]: 10.7 ×10⁻⁶ cm/s
5 | CC(=O)OCCC[C@H](C)C1=C(C)C[C@H]2OC(=O)/C(=C/c3ccc(O)cc3)[C@H]2[C@@H]1O | 31.5 | 102.5 | –
6 | CC(=O)OCCC[C@H](C)C1=C(C)C[C@H]2OC(=O)[C@@H](C)[C@H]2[C@@H]1O | > 50 | 101.2 | –
7 | CC(=O)OCCC[C@H](C)C1=C(C)C[C@H]2OC(=O)[C@]3(CC(c4ccccc4)=NO3)[C@H]2[C@@H]1OC(C)=O | 33 | 96.6 | –
8 | CC(=O)OCCC[C@H](C)C1=C(C)C[C@H]2OC(=O)[C@]3(CC(c4ccccc4[N+](=O)[O-])=NO3)[C@H]2[C@@H]1OC(C)=O | > 50 | 97.1 | –
9 | CC(=O)OCCC[C@H](C)C1=C(C)C[C@H]2OC(=O)[C@]3(CC(c4ccc(N(C)C)cc4)=NO3)[C@H]2[C@@H]1OC(C)=O | 28.6 | 9 | –
10 | CC(=O)OCCC[C@H](C)C1C(C)C[C@H]2OC(=O)C(C)[C@H]2[C@@H]1O (mixture of isomers) | > 50 | 98.5 | –
11 | CC(=O)OCCC[C@H](C)C1=C(C)C[C@H]2OC(=O)[C@]3(CC(c4c(F)c(F)c(F)c(F)c4F)=NO3)[C@H]2[C@@H]1OC(C)=O | 16.3 | 92.2 | –
12 | CC(=O)OCCC[C@H](C)C1=C(C)C[C@H]2OC(=O)[C@]3(CC(c4ccc5ccccc5c4)=NO3)[C@H]2[C@@H]1OC(C)=O | > 50 | 95.4 | –
13 | C=C1C[C@H]2OC(=O)C(=C)[C@H]2C=C1[C@@H](C)CCCOC(C)=O | – | 54.2 | EC50 ([1]; bv-2): Not Active
14 | O=c1c(O)c(-c2ccc(O)c(O)c2)oc2cc(O)cc(O)c12 [QUERCETIN] | 10.5 | 98.1 | –
15 | CC(=O)OCCC[C@H](C)C1=C(C)C[C@H]2OC(=O)C(Cc3ccc(O)cc3)=C2[C@@H]1O | 15.9 | 90.1 | –
16 | C=C1C(=O)O[C@@H]2CC(CN3CCCCC3)=C([C@@H](C)CCCOC(C)=O)[C@@H](OC(C)=O)[C@H]12 | 18.4 | 92.8 | –
17 | CC(=O)OCCC[C@H](C)C1=C(C)C[C@H]2OC(=O)[C@]3(CC(c4ccc(F)cc4)=NO3)[C@H]2[C@@H]1OC(C)=O | 39 | 101.5 | –
18 | COc1ccc(C2=NO[C@]3(C2)C(=O)O[C@@H]2CC(C)=C([C@@H](C)CCCOC(C)=O)[C@@H](OC(C)=O)[C@@H]23)cc1 | > 50 | 96.5 | –
19 | C=C1C(=O)O[C@@H]2CC(CN(CC)CC)=C([C@@H](C)CCCOC(C)=O)[C@@H](OC(C)=O)[C@H]12 | 14.6 | 94.1 | –
20 | COc1ccccc1C1=NO[C@]2(C1)C(=O)O[C@@H]1CC(C)=C([C@@H](C)CCCOC(C)=O)[C@@H](OC(C)=O)[C@@H]12 | > 50 | 99.2 | –
21 | C=C1C(=O)O[C@H]2[C@@H]1[C@H](OC(C)=O)C([C@@H](C)CCCOC(C)=O)=C(C)[C@H]2n1cc(C(=O)OC)nn1 | – | 63.8 | EC50 ([1]; bv-2): Not Active
22 | C=C1C(=O)O[C@H]2[C@@H]1[C@H](OC(C)=O)C([C@@H](C)CCCOC(C)=O)=C(C)[C@H]2n1cc(-c2ccccc2)nn1 | – | 57.3 | EC50 ([1]; bv-2): Not Active

The remaining compounds from weak to strong by EC50 [1, 6], led by results:

Row | EC50 [1, 6] [µM] | Structure (SMILES) | Activity (BV-2 [2]) [%] | other results
23 | 14.4 | C=C1C(=O)O[C@@H]2CC(CN3CCOCC3)=C([C@@H](C)CCCOC(C)=O)[C@@H](OC(C)=O)[C@H]12 | 91.3 | –
24 | 12.5 | C=C1C(=O)O[C@@H]2CC(C)=C([C@@H](C)CCCOC(C)=O)[C@@H](O)[C@H]12 | 99.5 | Papp at 10 h [3]: 7.5 ×10⁻⁶ cm/s
25 | 11.1 | C=C1C(=O)O[C@H]2[C@@H]1[C@H](OC(C)=O)C([C@@H](C)CCCOC(C)=O)=C(CBr)[C@@H]2Br | 96 | –
26 | 9.1 | C=C1C(=O)O[C@H]2[C@@H]1[C@H](OC(C)=O)C([C@@H](C)CCCOC(C)=O)=C(C)[C@@H]2Br | 96.1 | –
27 | 6.7 | C=C1C(=O)O[C@H]2[C@@H]1[C@H](OC(C)=O)C([C@@H](C)CCCOC(C)=O)=C(C)[C@H]2N=[N+]=[N-] | 93.2 | –
28 | 6.5 | C=C1C(=O)O[C@@H]2C[C@@]3(C)O[C@@]3([C@@H](C)CCCOC(C)=O)[C@@H](O)[C@H]12 | 93.4 | –
29 | 6.3 | C=C1C(=O)O[C@@H]2CC(C)=C([C@@H](C)CCCOC(C)=O)[C@@H](OC(C)=O)[C@H]12 | 66.5 | fold change (FC) (BV-2 [4]): 4; Papp at 10 h [3]: 12.3 ×10⁻⁶ cm/s; inhibition at 10 µM [5]: 59.7%
30 | 4.5 | C=C1C(=O)O[C@H]2[C@@H]1[C@H](OC(C)=O)C([C@@H](C)CCCOC(C)=O)=C(C)[C@@H]2c1ccccc1 | 91.7 | –
31 | 3.8 | C=C1C(=O)O[C@H]2[C@@H]1[C@H](OC(C)=O)C([C@@H](C)CCCOC(C)=O)=C(C)[C@H]2N | 90.9 | –
32 | 2.8 | C=C1C(=O)O[C@@H]2C[C@@]3(C)O[C@@]3([C@@H](C)CCCOC(C)=O)[C@@H](OC(C)=O)[C@H]12 | 89.5 | –
33 | 2 | C=C1C(=O)O[C@@H]2C=C(C)C(Cl)([C@@H](C)CCCOC(C)=O)[C@@H](OC(C)=O)[C@H]12 (stereo partly specified) | 90.8 | –
34 | 1 | C=C1C(=O)O[C@@H]2CC(=C)C(Cl)([C@@H](C)CCCOC(C)=O)[C@@H](OC(C)=O)[C@H]12 (stereo partly specified) | 90.9 | –
